Results as given in patent US8481551B2, “Gyrase and topoisomerase IV inhibitors” (Vertex Pharmaceuticals Incorporated, priority 2011, dated 2013).
Where a name gives a salt, the structure may show the parent alone. Read-outs that look alike come from different tables or passages of the source.

What was measured:
[1] = Pharmacokinetics, monkey oral study; assay type: in vivo, cynomolgus monkeys; settings: for AUC: male, cynomolgus monkey, plasma, po, monkey plasma, label = analyte
Text: Pharmacokinetic Data Analysis.
Statistical Data Analysis.
Plasma concentration vs. time data was subjected to noncompartmental pharmacokinetic (PK) analysis.

[2] = Pharmacokinetics, rat IV study; settings: male Sprague Dawley rats, plasma, analyte as labelled; for AUC: male, Sprague Dawley, rat, iv
[3] = Pharmacokinetics, monkey IV study; settings: male, cynomolgus monkey, plasma, 5 mg/kg, Compound W dosed IV 5 mg/kg in D5W, label = analyte
[4] = test system: Prevotella spp.; test: Gyrase MIC, agar dilution method (Protocol 3); assay type: cell-based; settings: 13 isolates tested
[5] = test system: Enterobacter cloacae; test: Gyrase MIC against Gram negatives, microdilution broth method (Protocol 2); assay type: cell-based; settings: 12 isolates tested
[6] = test system: Clostridium perfringens; test: microbe, parasite or virus in culture; assay type: cell-based
[7] = test system: S. aureus (ATCC 29213); test: Neutropenic rat thigh infection model; assay type: in vivo, Sprague Dawley rats
Text: Animals: Specific-pathogen-free, male Sprague Dawley rats weighing between 76 to 100 grams were obtained from Charles River Laboratories, Inc. (Wilmington, Mass.) and utilized in this experiment. Animals were allowed to acclimate for a minimum of seven (7) days before study commencement. Bacteria: The methicillin-sensitive Staphylococcus aureus(MSSA) ATCC strain 29213 was utilized for in vivo experimentation. The test isolate was subcultured twice onto standard microbiological agar media (trypticase soy agar with 5% sheep blood). The second transfer was made less than 24 hours before use in the preparation of the thigh infection model inoculum. Neutropenic Rat Thigh Infection Model: To induce neutropenia, rats were treated with the immunosuppressant cyclophosphamide at 150 mg/kg, administered in 1 ml by intraperitoneal (IP) injection, three day prior to infection. Rats were infected by an intramuscular (IM) 0.2 ml injection into both rear thighs with a 10^7 cfu/ml methicillin-sensitive Staphylococcus aureus 29213 suspension in normal saline. After increasing amounts of time (2-26 hours) the two rear thighs of each animal were harvested, rinsed with sterile saline, weighed, then placed in 50 ml sterile normal saline and placed on wet ice until homogenization. Approximately one-half of the total homogenized sample volume was passed through a large pore filter (to remove cartilage and large clumped pieces of tissue), diluted in saline and cultured onto agar media plates (trypticase soy agar with 5% sheep blood). All culture plates were incubated at approximately 37° C. for 18-24 hours. Colony-forming units were enumerated (in cfu/ml of homogenate) and the median for each treatment and control group was calculated. […] The median cfu/ml per group was compared to the initial bacterial density at 2 hours (Early Control) or that of the time-matched vehicle control group (Late Control; LC) group harvested simultaneously. […] After 2 hours a single group of rats (Early Control (EC) was euthanized and the thighs harvested, homogenized and plated to quantitate S. aureus burdens. The additional infected rats were treated by oral gavage with Vehicle at 10 ml/kg (20% Cavitron/1% HPMCAS-MG; […] The 8-hour treatment groups received a single treatment (QD) and were euthanized and thighs collected for cfu determination 8 hours post treatment (QD), while the 24-hour treatment groups received 2 doses 12 hours apart (q12 h) and were euthanized and thighs collected 24 hours post treatment. […] After 2 hours a single group of rats (Early Control (EC)) was euthanized and the thighs harvested, homogenized and plated to quantitate S. aureus burdens. The additional infected rats were treated by oral gavage with Vehicle at 10 ml/kg (10% Vitamin E/TPGS; […] The 8-hour treatment groups received a single treatment (QD) and were euthanized and thighs collected for cfu determination 8 hours post treatment (QD), while the 24 hour treatment groups received 2 doses 12 hours apart (q12 h) and were euthanized and thighs collected 24 hours post treatment.

[8] = test system: Mycobacterium tuberculosis; test: Mycobacterium tuberculosis serum shift MIC assay (Protocol 5); assay type: cell-based; settings: ATCC 35801 / ERDMAN
Text: Protocol 5. Protocol for Mycobacterium tuberculosis Serum Shift MIC Assay
Media Prep: • 1. […] It was important that all media and supplements were sterilized prior to MICs. • 2. Prepared all media below and inoculated as described in next section. Tested all compounds against Mtb using each media. • a. […] 7H9+0.2% glycerol+2 g/L dextrose+0.85 g/L NaCl+0.003 g/L catalase (0% FBS). • c. 2×7H9+0.2% glycerol+2 g/L dextrose+0.85 g/L NaCl+0.003 g/L catalase combined with equal volume Fetal Bovine Serum (50% FBS).
Inoculum Prep: • 1. […] Typically plates were two to three weeks of age when used for this assay due to the slow growth of this organism in culture. • 2. Vortexed well, then sonicated in water bath for 30 sec providing a suspension of ˜10^8 cells/ml. […] Prepared inoculum in each of the three media formulations by diluting the BBL Prompt suspension 1/200 (for example: transferred 0.2 ml of cells to 40 ml of medium) to obtain a starting cell density of ˜10^6 cells/ml. • 4.
After 24 hours the fluorescence of each well was measured at Excitation 492 nm, Emission 595 nm.
Percent inhibition by a given compound was calculated as follows: Percent inhibition=100−([well fluorescence-average background fluorescence]/[DMSO control−average background fluorescence]×100).

[9] = test system: Streptococcus pneumoniae; test: Gyrase MIC, microdilution broth method (Protocol 1); settings: ATCC10015
[10] = 100 mg/kg, Compound W dosed PO 100 mg/kg in 0.5% MC, read-out: AUCextrap
[11] = Compound W 1 mg/kg single IV bolus in D5W
[12] = Compound W 5 mg/kg single IV bolus in D5W
[13] = 1 mg/kg, AUC, Compound W 1 mg/kg single IV bolus in D5W
[14] = 1 mg/kg, AUCextrap, Compound W 1 mg/kg single IV bolus in D5W
[15] = 5 mg/kg, AUC, Compound W 5 mg/kg single IV bolus in D5W
[16] = 5 mg/kg, AUCextrap, Compound W 5 mg/kg single IV bolus in D5W
[17] = 8 hours after the first dose, 10 mg/kg oral
[18] = Table 8: 10 mg/kg oral, QD, 8 Hours
[19] = Table 8: 10 mg/kg oral, q12 h, 24 Hours
[20] = Table 8: 30 mg/kg oral, QD, 8 Hours
[21] = Table 8: 30 mg/kg oral, q12 h, 24 Hours
[22] = Table 8: 60 mg/kg oral, QD, 8 Hours
[23] = Table 8: 60 mg/kg oral, q12 h, 24 Hours

CCNC(=O)Nc1nc2cc(-c3cnc(C(C)(C)O)nc3)c(F)c([C@H]3CCCO3)c2[nH]1 [Compound 23, 1-ethyl-3-[6-fluoro-5-[2-(1-hydroxy-1-methyl-ethyl)pyrimidin-5-yl]-7-[(2R)-tetrahydrofuran-2-yl]-1H-benzimidazol-2-yl]urea]
AUC ([1]; 30 mg/kg, Compound W dosed PO 30 mg/kg in 0.5% MC, read-out: AUCextrap): 24800 ng·h/mL | AUC [1, 10]: 76900 ng·h/mL | AUC ([1]; 300 mg/kg, Compound W dosed PO 300 mg/kg in 0.5% MC, read-out: AUCextrap): 155000 ng·h/mL | Cl_obs [2, 11]: 54.9 mL/min/kg | Vss_obs [2, 11]: 3.8 L/kg | Cl_obs [2, 12]: 27.3 mL/min/kg | Vss_obs [2, 12]: 4.08 L/kg | AUC [2, 13]: 306 ng·h/mL | AUC [2, 14]: 310 ng·h/mL | AUC [2, 15]: 3040 ng·h/mL | AUC [2, 16]: 3060 ng·h/mL | AUC ([3]; AUCextrap): 3810 ng·h/mL

CCNC(=O)Nc1nc2cc(-c3cnc(C(C)(C)O)nc3)c(F)c([C@H]3CCCO3)c2[nH]1 [Compound 23A, methanesulfonic acid salt of 1-ethyl-3-[6-fluoro-5-[2-(1-hydroxy-1-methyl-ethyl)pyrimidin-5-yl]-7-[(2R)-tetrahydrofuran-2-yl]-1H-benzimidazol-2-yl]urea]
MIC90 [4]: 16 µg/mL | MIC Range [4]: 0.06 to 16 µg/mL | MIC90 [5]: > 8 µg/mL | MIC90 [6]: 0.5 µg/mL | MIC Range ([6]; 12 isolates tested, Protocol 3): 0.12 to 0.5 µg/mL | bacterial growth compared to early control [7, 17]: held the bacterial growth of SA 29213 to at least the point of stasis | log reduction in burdens compared to time-matched control [7, 17]: ~1.3 log | log reduction in burdens compared to time-matched control ([7]; 8 hours after the first dose, 30 and 60 mg/kg oral): ~2 log | decrease of bacterial burden compared to early control ([7]; 8 hours after the first dose, 60 and 100 mg/kg (so in the source)): 0.5-0.6 logs | log reduction compared to early control ([7]; 24 hours, second dose at 12 hours, 10 mg/kg): approximately 0.8 log | log reductions compared to early control ([7]; 24 hours, second dose at 12 hours, 30 and 60 mg/kg): 1.1-1.2 log | decrease in bacterial density compared to late control ([7]; 24 hours, second dose at 12 hours, all treatment groups (10, 30, 60 mg/kg)): 2.4-2.8 logs | Median Thigh Burden (Log cfu/mL) ([7]; Table 8: 10 mg/kg oral gavage, single treatment (QD), 8 Hours): 5.42 Log cfu/mL | Median Thigh Burden (Log cfu/mL) ([7]; Table 8: 10 mg/kg oral, 2 doses 12 hours apart (q12 h), 24 Hours): 4.59 Log cfu/mL | Log Difference vs. Early Control [7, 18]: 0.05 | Log Reduction vs. Late Control (8-hour) [7, 18]: −1.36 | Log Difference vs. Early Control [7, 19]: −0.78 | Log Difference vs. Late Control (24-hour) [7, 19]: −2.40 | Log Difference vs. Early Control [7, 20]: −0.62 | Log Reduction vs. Late Control (8-hour) [7, 20]: −2.02 | Median Thigh Burden (Log cfu/mL) [7, 20]: 4.75 Log cfu/mL | Log Difference vs. Early Control [7, 21]: −1.06 | Log Difference vs. Late Control (24-hour) [7, 21]: −2.68 | Median Thigh Burden (Log cfu/mL) [7, 21]: 4.31 Log cfu/mL | Log Difference vs. Early Control [7, 22]: −0.57 | Log Reduction vs. Late Control (8-hour) [7, 22]: −1.97 | Median Thigh Burden (Log cfu/mL) [7, 22]: 4.80 Log cfu/mL | Log Difference vs. Early Control [7, 23]: −1.18 | Log Difference vs. Late Control (24-hour) [7, 23]: −2.80 | Median Thigh Burden (Log cfu/mL) [7, 23]: 4.19 Log cfu/mL | MIC ([8]; M. tuberculosis Erdman ATCC 35801, read-out: MIC): 0.03 µg/mL | MIC ([8]; M. tuberculosis Erdman ATCC 35801 with Mouse Serum): 0.5 µg/mL

CCNC(=O)Nc1nc2cc(-c3cnc(C(C)(C)OP(=O)([O-])[O-])nc3)c(F)c([C@H]3CCCO3)c2[nH]1.[Na+].[Na+] [Compound W, disodium (R)-2-(5-(2-(3-ethylureido)-6-fluoro-7-(tetrahydrofuran-2-yl)-1H-benzo[d]imidazol-5-yl)pyrimidin-2-yl)propan-2-yl phosphate]
conversion in vivo into Compound 23 ([1]; in at least rats, dogs and monkeys (all pharmacokinetic studies)): converted in vivo into Compound 23 | AUC ([1]; 30 mg/kg, Compound W dosed PO 30 mg/kg in 0.5% MC, read-out: AUC): 45.3 ng·h/mL | AUC ([1]; 100 mg/kg, Compound W dosed PO 100 mg/kg in 0.5% MC, read-out: AUC): 432 ng·h/mL | AUC [1, 10]: 437 ng·h/mL | AUC ([1]; 300 mg/kg, Compound W dosed PO 300 mg/kg in 0.5% MC, read-out: AUC): 3690 ng·h/mL | Cl_obs [2, 11]: 46.7 mL/min/kg | Vss_obs [2, 11]: 0.38 L/kg | Cl_obs [2, 12]: 84.6 mL/min/kg | Vss_obs [2, 12]: 5.8 L/kg | AUC [2, 13]: 416 ng·h/mL | AUC [2, 14]: 419 ng·h/mL | AUC [2, 15]: 1110 ng·h/mL | AUC [2, 16]: 1120 ng·h/mL | AUC ([3]; AUC): 5790 ng·h/mL | AUC ([3]; AUCextrap): 5830 ng·h/mL | MIC [9]: 0.25 µg/mL
